From patent US7989466B2, “Methods to inhibit or augment an inflammatory response” (Cambridge Enterprise Limited, priority 1999, dated 2011)
Marks after values point to notes of the source that are not given here. Positions of bridges follow the written chain, without caps; N, C: chain ends. Non-standard residues stand in square brackets, D forms with d. No end group written: not given here.

Legend:
[1] = system: MCP-1 induced THP-1 migration; test: THP-1 trans-well migration assay, MCP-1 as chemoattractant; assay type: cell-based, human; details: ns = not significantly different from control
Protocol: (§1) To determine whether an agent inhibits a chemokine-induced activity, such as macrophage recruitment, varying amounts of the agent are mixed with cells in the presence of a known chemoattractant. For example, a range of known concentrations of an agent, e.g., a chemokine peptide, is incubated with a defined number (e.g., 10^4-10^6) of human THP-1 monocyte cells in individual wells of the top compartment of a trans-well plate. Chemokine (such as MCP-1, MIP1α, IL8 or SDF-1α), at a concentration known to cause significant migration of THP-1 cells in the trans-well migration assay, is placed in the lower compartment (FIG. 1). Cells are then incubated at 37° C. for a period sufficient to allow migration, e.g., 4 hours. After incubation, the cells are gently removed from the top of the filter with a pipette, 20 μl of 20 mM EDTA in simple PBS is added into each top well, and incubated for 20 minutes at 4° C. The filter is carefully flushed with media using a gentle flow, and removed. A standard curve consisting of a two-fold dilution series of THP-1 cells (in 29 μl) is prepared to accurately quantify the number of cells that have migrated. Migrated cells are stained with 3 μl of MTT stock dye solution which is added directly into each well (5 mg/ml in RPMI-1640 without phenol red, Sigma Chemical Co.) and incubated at 37° C. for 4 hours. The media is carefully aspirated from each well, and the converted dye is solubilized by 20 μl of DMSO. Absorbance of converted dye is measured at a wavelength of 595 nm using an ELISA plate reader. The number of migrated cells in each well is then determined by interpolation of the standard curve (see also Imai et al., J. Biol. Chem., 272, 15036 (1997)).
(§2) For this assay, THP-1 cells were maintained at a density of 4×10^5 cells per ml in RPMI-1640 supplemented with 10% fetal calf serum+20 μM 2-mercaptoethanol. Chemotaxis was induced in a 96-well disposable chemotaxis chamber fitted with a […] polycarbonate filter (PVP free, ChemoTX, Neuroprobe Inc., Cabin John). Twenty-nine μl of chemoattractant (recombinant human chemokine; 50 ng/ml, i.e., 5.9 nM) or control (100 ng/ml TGFβ) was added to the lower compartment of each well. The framed filter was aligned with the holes in the corner of the filter frame and placed over the wells. Five×10^4 THP-1 cells in 25 μl of RPMI-1640 were added to the upper compartment. Peptides were dissolved in Milli Q water and then serially diluted in culture medium. In most cases, the serially diluted peptides were added to the upper compartment of the chemotaxis chamber. The chamber was incubated at 37° C. in a humidified atmosphere of 5% CO2 for 4 hours.
(§3) After incubation, the cells were gently removed from the top of the filter with a pipette, 20 μl of 20 mM EDTA in PBS was added into each top well, and the mixture was incubated for 20 minutes at 4° C. The filter was then carefully flushed with media using a gentle flow, and removed. A standard curve was prepared to accurately quantify the number of THP-1 cells that had migrated. The curve was based on a two-fold dilution series of THP-1 cells (top standard 100,000 cells in 29 μl). Cells which had migrated, and in separate wells, the cells in the standards, were stained with 3 μl of MTT stock solution which was added directly into each well (5 mg/ml in RPMI 1640 without phenol red, Sigma Chemical Co.) and incubated at 37° C. for 4 hours. The media was carefully aspirated from each well, and the converted dye was solubilized by 20 μl of DMSO. Absorbance of converted dye was measured at a wavelength of 595 nm using an ELISA plate reader. The number of cells that had migrated in each well was determined by interpolation of the standard curve.

[2] = system: MIP1α induced THP-1 migration; test: THP-1 trans-well migration assay, MIP1α as chemoattractant; assay type: cell-based, human; details: ns = not significantly different from control
Protocol: as §1, §2, §3

[3] = system: SDF-1α induced THP-1 migration; test: THP-1 trans-well migration assay, SDF-1α as chemoattractant; assay type: cell-based, human; details: ns = not significantly different from control
Protocol: as §1, §2, §3

[4] = system: HIV; assay type: cell-based; details: ns = not significantly different from control
[5] = system: gp120; details: ns = not significantly different from control; >100 = ED50 not determined
[6] = in vivo; cited from earlier work
[7] = molecular target: T1, Duffy Antigen Receptor for Chemokines (DARC) (Homo sapiens, UniProt Q16570); test: DARC binding: competition with 125I-MCP-1 on red blood cells; details: for DARC binding: ns = not significantly different from control, >100 = ED50 not determined
T1 sequence (Q16570 1-336): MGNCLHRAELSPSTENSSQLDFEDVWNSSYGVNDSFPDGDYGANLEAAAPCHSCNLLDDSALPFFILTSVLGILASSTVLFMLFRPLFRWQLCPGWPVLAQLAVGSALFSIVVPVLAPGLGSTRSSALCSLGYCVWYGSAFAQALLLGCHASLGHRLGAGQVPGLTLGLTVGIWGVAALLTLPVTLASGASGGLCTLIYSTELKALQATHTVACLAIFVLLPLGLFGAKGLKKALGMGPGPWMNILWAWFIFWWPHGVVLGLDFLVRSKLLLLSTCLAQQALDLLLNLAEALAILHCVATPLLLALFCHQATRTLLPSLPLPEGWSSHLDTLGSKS

[8] = system: chemokine-induced THP-1 migration; test: THP-1 trans-well migration assay, panel of chemokines (MCP-1, MIP1α, IL-8, SDF1α); assay type: cell-based, human; details: MCP-1, MIP1α, IL-8, SDF1α
[9] = system: chemokine receptors on THP-1 cells; test: Binding to chemokine receptors on THP-1 cells; set-up: species or system human
Protocol: In general, specific binding is calculated as the amount of labeled agent bound in the absence of cold competitor minus the amount of labeled agent bound in the presence of cold competitor. The amount of specific binding in the presence of varied amounts of cold competitor can be used to determine the association constant for the agent, as well as the number of binding sites on the cell for the agent, using, for example, Scatchard Analysis. The agent may be labeled by radiolabeling (e.g., iodination) or with a suitable biochemical tag (e.g., biotin) or by addition of a photoactivatable crosslinking group. Agents with an association constant lower than 100 μM (i.e., which bind more strongly than an agent with an association constant of 100 μM) and which have at least about 2,500, preferably at least about 10,000, and more preferably greater than 25,000, binding sites per cell for at least one cell type which expresses a chemokine receptor, fall under the scope of this invention. THP-1 cells have at least about 5,000 MCP-1 receptors/cell.
For example, monocytes are suspended in RPMI 1640 medium without bicarbonate containing 0.2% bovine serum albumin and 0.1% azide. Radiolabeled chemokine peptide is incubated with 1-2×10^6 cells, e.g., THP-1 cells, in the presence or absence of increasing concentrations of unlabeled chemokine (MCP-1, MCP-3, MCP-4, RANTES or MIP-1α) for 15 minutes at 37° C. in a 96-well plate in a final volume of 0.2 ml (e.g., PBS+0.5% FCS). After the incubation, 0.5 ml of ice-cold wash buffer (20 mM Tris, 0.5 M NaCl, pH 7.4) is added, and cells are collected onto a polyethyleneimine-treated Whatman GF/C filter using a Brandall cell harvester. Filters are washed with 4 ml of cold wash buffer, and the radioactivity bound to the filters is counted in a γ-counter.
For Scatchard analysis, the absorbance readings at 450 nm were calibrated, by reference to a standard curve in which known amounts of labeled peptide were coupled to derivatized sepharose beads (activated thiol-sepharose 4B; Sigma T8512) via the cysteine residue in each peptide. Briefly, known amounts (1 fmol to 1 pmol) of biotin-labeled peptide were incubated with 1 mg of activated thiol-sepharose beads in 100 μl of PBS at 37° C. for 1 hour. Free activated thiols were then blocked by addition of cysteine to a final concentration of 10 mM. The peptide-conjugated beads were then washed 5 times in PBS and treated exactly as for the cells described above. The absorbance at 450 nm obtained when a known amount of peptide was coupled to the beads was used to construct a standard curve which was used to convert the absorbance readings obtained with cells into number of molecules of labeled peptide which had bound.

[10] = system: RANTES induced THP-1 migration; test: THP-1 trans-well migration assay, RANTES as chemoattractant; assay type: cell-based, human; details: tripeptide at 100 μM, mean ± range; dash = no statistically significant reduction in migration
Protocol: To determine whether an agent inhibits a chemokine-induced activity, such as macrophage recruitment, varying amounts of the agent are mixed with cells in the presence of a known chemoattractant. For example, a range of known concentrations of an agent, e.g., a chemokine peptide, is incubated with a defined number (e.g., 10^4-10^6) of human THP-1 monocyte cells in individual wells of the top compartment of a trans-well plate. Chemokine (such as MCP-1, MIP1α, IL8 or SDF-1α), at a concentration known to cause significant migration of THP-1 cells in the trans-well migration assay, is placed in the lower compartment (FIG. 1). […] A standard curve consisting of a two-fold dilution series of THP-1 cells (in 29 μl) is prepared to accurately quantify the number of cells that have migrated. […] Absorbance of converted dye is measured at a wavelength of 595 nm using an ELISA plate reader. The number of migrated cells in each well is then determined by interpolation of the standard curve (see also Imai et al., J. Biol. Chem., 272, 15036 (1997)). […]
After incubation, the cells were gently removed from the top of the filter with a pipette, 20 μl of 20 mM EDTA in PBS was added into each top well, and the mixture was incubated for 20 minutes at 4° C. […] A standard curve was prepared to accurately quantify the number of THP-1 cells that had migrated. […]

[11] = system: TGF-beta receptor of THP-1 cells; test: Binding of biotinylated TGF-beta peptides to THP-1 cells; set-up: species or system human; details: for EC50: biotinylated peptide, read-out: ED50 of binding to the TGF-beta receptor of THP-1 cells

| Compound | MCP-1 ED-50 [1] | MIPIa ED-50 [2] | SDF1a ED-50 [3] | % virus inhibition [4] | gp120 ED-50 [5] | DARC binding [7] | also measured |
| --- | --- | --- | --- | --- | --- | --- | --- |
| CC[C@H](C)[C@H](NC(=O)[C@H](CCCNC(=N)N)NC(=O)[C@H](CCCNC(=N)N)NC(=O)[C@H](Cc1ccc(O)cc1)NC(=O)[C@@H](N)CO)C(=O)N[C@H](C(=O)N[C@@H](CO)C(=O)N[C@@H](CO)C(=O)N[C@@H](CCCCN)C(=O)N[C@@H](CS)C(=O)O)[C@@H](C)O | ns | ns | ns | ns | 60 µM |  |  |
| NCC[C@H](O)C(=O)N[C@@H]1C[C@H](N)[C@@H](O[C@H]2O[C@H](CN)[C@@H](O)[C@H](O)[C@H]2O)[C@H](O)[C@H]1O[C@H]1O[C@H](CO)[C@@H](O)[C@H](N)[C@H]1O [amikacin] |  |  |  |  |  |  | T1/2 [6]: about 2 hours; Vd [6]: 0.27 L/kg; urinary excretion [6]: 98% |
| =cvaekpsksstirrysc= ([dC][dV][dA][dE][dK][dP][dS][dK][dS][dS][dT][dI][dR][dR][dY][dS][dC]; disulfide 1-17 (inferred); not fully specified (C-terminus); printed as =cvaekpsksstirrysc=) | ns | ns | ns | ns | ns |  |  |
| CSKPGV | ns | ns | ns | ns | ns | ns |  |
| CSYRRITSSKSPKEAVC | ns | ns | ns | ns |  | ns |  |
| DYFETSSQC | ns | ns | ns | ns | ns | ns |  |
| HLKILNTPNCALQIV [Pep2[SDF1]] | 10 =M | 40 =M | 7 =M |  | 35 µM |  | effect on THP-1 migration induced by the chemokine panel, in words [8]: potent pan-chemokine antagonist properties; AVERAGE ED50, peptide 2 family: estimated ka for binding to THP-1 cells [9]: 1-10^e μM; DUFFY SELECTIVITY, peptide 2 family ([7]; ka for binding to red blood cells divided by the ka for binding THP-1 cells): <1^d |
| SES |  |  |  |  |  |  | percentage inhibition of migration induced by RANTES [10]: 87 ± 4% |
| SYRRI | ns | ns | ns | ns | ns | ns |  |
| TSSKC | ns | ns | ns | ns | ns | ns |  |
| biotinylated HEPKGYHANFC [Biotinylated T2] |  |  |  |  |  |  | receptor character (agonist, antagonist, neutral) [11]: weak receptor antagonist; EC50 [11]: 30 µM |
| biotinylated LYIDFRQDLGWKW (also: biotinylated, site not given here) [Biotinylated T1] |  |  |  |  |  |  | receptor character (agonist, antagonist, neutral) [11]: receptor neutral agent; EC50 [11]: 18 µM |
| vgpkscqsstefyd | ns | ns | ns | ns | ns | ns |  |
